IC50 data for 5 molecules are collected here from US20100160401A1, “4-PHENYLIMIDAZOLE-2-THIONE TYROSINASE INHIBITORS AND TREATMENT OR PREVENTION OF PIGMENTARY DISORDERS THEREWITH” (GALDERMA RESEARCH & DEVELOPMENT, BIOT, FRANCE, priority 2007, published 2010).

The experiment has as its target T1, tyrosinase (Mus musculus, UniProt P11344).
T1 construct: the supernatant obtained constitutes the cell lysate used as tyrosinase source in the enzymatic assay; endogenous in cells; host or cells: B16F1 murine melanoma cells, cultured with alpha-MSH, lysed in 1% Igepal and sonicated; the supernatant was used
T1 sequence (P11344 19-533): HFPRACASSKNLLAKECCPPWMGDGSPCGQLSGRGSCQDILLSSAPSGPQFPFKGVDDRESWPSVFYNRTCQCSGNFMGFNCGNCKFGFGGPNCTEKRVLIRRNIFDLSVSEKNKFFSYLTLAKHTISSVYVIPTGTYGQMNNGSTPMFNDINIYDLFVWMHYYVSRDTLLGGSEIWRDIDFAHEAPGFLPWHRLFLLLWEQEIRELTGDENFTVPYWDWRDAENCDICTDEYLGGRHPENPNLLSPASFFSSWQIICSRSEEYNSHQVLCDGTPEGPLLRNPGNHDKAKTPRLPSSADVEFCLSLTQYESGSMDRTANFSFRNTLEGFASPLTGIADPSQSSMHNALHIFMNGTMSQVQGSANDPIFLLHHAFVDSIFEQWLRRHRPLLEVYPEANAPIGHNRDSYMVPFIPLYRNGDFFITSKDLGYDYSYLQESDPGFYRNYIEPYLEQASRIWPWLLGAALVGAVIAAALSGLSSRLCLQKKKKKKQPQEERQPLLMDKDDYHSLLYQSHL
Description: Tyrosinase activity inhibition assay (B16F1 cell lysate, L-tyrosine substrate, MBTH trapping, absorbance 520 nm). The class given is biochemical. Particulars: lysate of B16F1 cells (murine melanoma line) as tyrosinase source, 37° C., reading at 520 nm after 6 hours, read-out: Tyrosine hydroxylase/Dopa oxidase IC50. Here is the method: The activity of the inhibitors is measured starting from a lysate of B16F1 cells (murine melanoma line). In the presence of the L-tyrosine substrate, the tyrosinase present in these cells catalyses the hydroxylation of L-tyrosine to give L-DOPA and then the oxidation of the L-DOPA to give dopaquinone. In the presence of MBTH (3-methyl-2-benzothiazolinone hydrazone), the dopaquinone is trapped so as to form a pink complex which absorbs at 520 nm.
The B16F1 cells are cultured in DMEM medium+10% foetal calf serum+10^−9 M α-MSH for 4 days at 37° C. under 7% CO2. They are treated with trypsin, washed with PBS, counted and pelleted. The pellet is taken up at 10^7 cells/ml in lysis buffer (10 mM sodium phosphate, pH 6.8-1% Igepal) and the suspension is treated with ultrasound for 10 seconds. After centrifugation for 30 minutes at 4000 rpm, the supernatant obtained constitutes the cell lysate used as tyrosinase source in the enzymatic assay.
The assays are carried out in duplicate in 384-well plates in a total volume of 50 μl. Each well contains:
40 μl of solution containing 1.25 mM L-tyrosine, 6.25 μM L-DOPA (cofactor) and 3.75 mM MBTH in buffer B (62.25 mM sodium phosphate, pH 6.8-2.5% dimethylformamide),
5 μl of inhibitor diluted in DMSO,
5 μl of cell lysate diluted to ½ in 50 mM Tris HCl buffer, pH 7.5.
The plate is incubated at 37° C. and a spectrophotometric reading is carried out at 520 nm after incubating for 6 hours. To avoid any possible absorption of the products, the system uses corrected absorbance (absorbance at time 6 h absorbance at time zero).
The inhibitors are assayed in terms of dose-response so as to calculate an IC50 (dose which inhibits 50% of the enzymatic activity).
Several internal controls are added to each experiment:
control for 100% activity: the 5 μl of inhibitor are replaced with 5 μl of DMSO,
control for 50% activity: the 5 μl of inhibitor are replaced with 5 μl of phenylthiourea at 300 μM in DMSO,
control for 0% activity: the L-tyrosine substrate is replaced with buffer B.
For the molecule `COc1ccc(-c2c[nH]c(=S)[nH]2)cc1` [Compound 3, 4-(4-methoxyphenyl)-1,3-dihydroimidazole-2-thione], the IC50 is 900 nM.

On to `S=c1[nH]cc(-c2cccc(Br)c2)[nH]1` [Compound 4, 4-(3-bromophenyl)-1,3-dihydroimidazole-2-thione], for which the IC50 came out at 3000 nM.

As for `Cc1ccc(-c2cnc(S)[nH]2)cc1` [Compound 13, 4-(4-methylphenyl)-1,3-dihydroimidazole-2-thione], the IC50 was found to be 600 nM.

For `Sc1nc(-c2ccccc2)c[nH]1` [Compound 1, 4-phenyl-1,3-dihydroimidazole-2-thione], the IC50 was determined as 250 nM.

Consider `Fc1ccc(-c2c[nH]c(=S)[nH]2)cc1` [Compound 8, 4-(4-fluorophenyl)-1,3-dihydroimidazole-2-thione], for which the IC50 amounted to 300 nM.
